Data reported in patent US9334212B2, “Compounds and compositions” (Colgate-Palmolive Company, priority 2010, dated 2016).
Converted amounts (≈) assume the structure as drawn. Read-outs that look alike come from different tables or passages of the source.

How the values were obtained:
Assay type in all cases: cell-based
[1] = system: Corynebacterium xerosis (C. xerosis); assay: Minimum Inhibitory Concentration (MIC), skin bacteria; settings: read-out: Minimum Inhibitory Concentration
Experimental: (§1) The compound of Formula (II) was evaluated for its antibacterial efficacy against representative skin bacteria such as Staphylococcus aureus (S. aureus), Staphylococcus epidermidis (S. epidermidis), Corynebacterium minutissimum (C. minutissimum), Corynebacterium xerosis (C. xerosis) and Escherichia coli (E. coli). Zone of inhibition (ZOI), Minimum Inhibitory Concentration (MIC), and a Short Interval Kill Test (SIKT) were all performed, and the results are described in Tables 2-4 (below).
(§2) MIC against four common skin pathogens was evaluated for the compound of Formula (II), using the following method: A two-fold dilution of the compound of Formula (II) was prepared in a 96 well plate and a constant amount of bacteria added in each well. After 18-24 hours of incubation, bacterial growth was measured by using a Spectrophotometric Micro-plate Reader and the MIC values were determined.

[2] = system: Staphylococcus epidermidis (S. epidermidis); assay: as above; settings: for MIC: Staphylococcus epidermidis, read-out: Minimum Inhibitory Concentration
Experimental: as §1, §2

[3] = system: Escherichia coli (E. coli); assay: Zone of Inhibition Test (ZOI); settings: Example 4
Experimental: as §1
(§3) The compound of Formula (II) was dissolved in polyethylene glycol (PEG 300), or in 100% ethanol at 0.5% concentration. 20 μL of each solution was placed on separate filter disks and air dried for 20 minutes. After 20 minutes of drying, the coated disks were placed in the bacterial lawn and plates were incubated at 37° C. for 18 hours, followed by measurement of ZOI.
(§4) The antibacterial efficacy of the compound of Formula (II) was measured in comparison to triclosan, using various tests. The results are provided below in Tables 5 and 6.

S. aureus = assay: Rapid Agar Plate Assay (RAPA); settings: for Log reduction in Bacterial Count: vs tap water washed plates
Experimental: (§5) The compound of Formula (II) was mixed with a base bar soap chip and tested for any residual antibacterial activity against S. aureus and E. coli by a rapid agar plate assay (RAPA). Briefly, the method involves washing TSA plates with the soap samples for 10 seconds, lathering for another 40 seconds and finally rinsing for 10 seconds. After air drying for 30 minutes, 100 μL of freshly prepared bacterial suspension (density was adjusted to 0.1 OD at 620 nm) was applied on the treated plates and then plates were incubated at 37° C. for about 18 hours. TSA plates washed with normal tap water were used as negative control. Next day, bacterial colonies were counted and converted to log 10 and the log reductions as a result of washing with samples were calculated.

E. coli = assay: Rapid Agar Plate Assay (RAPA); settings: vs tap water washed plates
Experimental: as §5

[4] = system: Corynebacterium minutissimum (C. minutissimum); assay: Zone of Inhibition Test (ZOI)
Experimental: as §1
(§6) 20 μL of each solution was placed on separate filter disks and air dried for 20 minutes. After 20 minutes of drying, the coated disks were placed in the bacterial lawn and plates were incubated at 37° C. for 18 hours, followed by measurement of ZOI.
as §4

[5] = system: Staphylococcus aureus (S. aureus); assay: Zone of Inhibition Test (ZOI)
Experimental: as §1, §6, §4

bacterial suspension = assay: Short Interval Kill Test (SIKT)
Experimental: SIKT determines the kill effect of the test article at a predetermined exposure time. […] Briefly, 1.2 mL of the compound of Formula (II)+PEG 300 was transferred into a sterile test tube, to which 0.2 mL of a freshly prepared bacterial suspension (OD adjusted to 0.1 at 620 nm) was added and gently mixed. The reaction was neutralized at the 1 minute or at the 5 minute point by adding a neutralizing broth. The reaction mixture was further diluted with letheen broth in 10-fold fashion and plated on MCA (Microbial Count Agar) plates for viable bacterial count.

A. viscosus = assay: Minimum Inhibitory Concentration, oral pathogens; settings: Actinomyces viscosus, read-out: Minimum Inhibitory Concentration
Excerpt: (§7) Table 1 (below) describes the antibacterial efficacy of an exemplary compound of the present invention against common oral pathogens, A. viscosus and S. mutans.

S. mutans = assay: Minimum Inhibitory Concentration, oral pathogens; settings: Streptococcus mutans, read-out: Minimum Inhibitory Concentration
Excerpt: as §7

[6] = system: Corynebacterium xerosis (C. xerosis); assay: Zone of Inhibition Test (ZOI); settings: 37° C. 18 hours
Experimental: as §1, §3

[7] = system: Staphylococcus epidermidis (S. epidermidis); assay: Zone of Inhibition Test (ZOI); settings: S. epiderm., 37° C. 18 hours
Experimental: as §1, §3

[8] = system: Corynebacterium minutissimum (C. minutissimum); assay: Minimum Inhibitory Concentration (MIC), skin bacteria; settings: for MIC: Corynebacterium minutissimum, read-out: Minimum Inhibitory Concentration
Experimental: as §1, §2, §4

[9] = system: Escherichia coli (E. coli); assay: as above
Experimental: as §1, §2, §4

[10] = system: Staphylococcus aureus (S. aureus); assay: as above; settings: for MIC: Staphylococcus aureus, read-out: Minimum Inhibitory Concentration
Experimental: as §1, §2, §4

[11] = 0.5% in EtOH, 20 μL on filter disk, 37° C. 18 hours
[12] = 0.5% in PEG 300, 20 μL on filter disk, 37° C. 18 hours
[13] = 0.5% in EtOH, 20 μL on filter disk
[14] = 0.5% in PEG 300, 20 μL on filter disk

C=CCc1cc(Cl)c(O)c(-c2cc(CC=C)cc(Cl)c2O)c1 [Compound of Formula (II)]
MIC ([1]; C. xerosis, + EtOH, 18-24 hours incubation): 156 µg/mL | MIC ([1]; C. xerosis, + PEG 300, 18-24 hours incubation): 78 µg/mL | Minimum Inhibitory Concentration ([2]; S. epiderm., + EtOH, 18-24 hours incubation): 39 ppm | MIC ([2]; S. epiderm., + PEG 300, 18-24 hours incubation): 39 µg/mL | Zone of Inhibition ([3]; 0.5%): 0 mm | Log reduction in Bacterial Count (S. aureus; 0.5% in soap chip): 0.506 log | Log reduction in Bacterial Count (S. aureus; 0.5% in soap chip, listed as compound of Formula (II)): 0.5 log | reduction in the growth (S. aureus; bar soap chip containing 0.5%): > 50% | Log reduction in Bacterial Count (E. coli; 0.5% in soap chip): 0.09 log | Zone of Inhibition [4, 11]: 17 mm | Zone of Inhibition [4, 12]: 21 mm | Zone of Inhibition ([4]; 0.5%, Example 4): 22 mm | Zone of Inhibition [5, 11]: 13 mm | Zone of Inhibition [5, 12]: 15 mm | Zone of Inhibition ([5]; 0.5%, Example 4): 20 mm | Short Interval Kill Test kill effect (bacterial suspension; 0.5% + PEG 300, exposure time 1 minute): 65.18 | Short Interval Kill Test kill effect (bacterial suspension; 0.5% + PEG 300, exposure time 5 minute): 87.37 | MIC (A. viscosus; A. viscosus): 0.5 to 1 µg/mL | MIC (S. mutans; S. mutans): 0.5 to 1 µg/mL | Zone of Inhibition [6, 13]: 14 mm | Zone of Inhibition [6, 14]: 15 mm | Zone of Inhibition [7, 13]: 15 mm | Zone of Inhibition [7, 14]: 16 mm | MIC ([8]; C. minutissimum, 0.5% active, Example 4): 9.7 µg/mL | MIC ([8]; C. minutissimum, + EtOH, 18-24 hours incubation): 39 µg/mL | MIC ([8]; C. minutissimum, + PEG 300, 18-24 hours incubation): 9.77 µg/mL | MIC ([9]; E. coli, 0.5% active, Example 4, read-out: Minimum Inhibitory Concentration): 1250 µg/mL | MIC ([10]; S. aureus, 0.5% active, Example 4): 2.44 µg/mL | MIC ([10]; S. aureus, + EtOH, 18-24 hours incubation): 39 µg/mL | MIC ([10]; S. aureus, + PEG 300, 18-24 hours incubation): 19.5 µg/mL

C=CCc1ccc(O)c(-c2cc(CC=C)ccc2O)c1 [Magnolol, magnolol]
MIC (A. viscosus): 32 µg/mL (≈ 120 µM) | MIC (S. mutans): 32 µg/mL (≈ 120 µM)

O=C(Nc1ccc(Cl)cc1)Nc1ccc(Cl)c(Cl)c1 [TCC, reference compound]
Log reduction in Bacterial Count (S. aureus; 0.4% TCC bar): 2.409 log | Log reduction in Bacterial Count (E. coli; 0.4% TCC bar): 0.167 log | Short Interval Kill Test kill effect (bacterial suspension; 0.5%, exposure time 1 minute): 56.54 | Short Interval Kill Test kill effect (bacterial suspension; 0.5%, exposure time 5 minute): 74.11

Oc1cc(Cl)ccc1Oc1ccc(Cl)cc1Cl [Triclosan, 5-chloro-2-(2,4-dichlorophenoxy)phenol, reference compound]
MIC [1]: 9.76 µg/mL (≈ 33.7 µM) | MIC [2]: < 2.44 µg/mL | Zone of Inhibition ([3]; 0.15%): 40 mm | Log reduction in Bacterial Count (S. aureus; 0.25% Triclosan bar): 2.409 log | Log reduction in Bacterial Count (E. coli; 0.25% Triclosan bar): 2.387 log | Zone of Inhibition ([4]; 0.15%, Example 4): 21 mm | Zone of Inhibition ([5]; 0.15%, Example 4): 50 mm | MIC (A. viscosus): 1 to 2 µg/mL (≈ 3.45 to 6.91 µM) | MIC (S. mutans): 1 to 2 µg/mL (≈ 3.45 to 6.91 µM) | Minimum Inhibitory Concentration ([8]; C. minutissimum, 0.15% active, Example 4): 4.88 ppm | MIC [8]: 4.88 µg/mL (≈ 16.9 µM) | MIC ([9]; read-out: Minimum Inhibitory Concentration): < 2.44 µg/mL | Minimum Inhibitory Concentration ([10]; S. aureus, 0.15% active, Example 4): <2.44 ppm | MIC [10]: < 2.44 µg/mL
